Results: US12497405B2, “Bicyclic heterocycle compounds methods of use thereof for the treatment of herpes viruses” (Merck Sharp & Dohme LLC, priority 2019, dated 2025)
Where two headings read alike, the source gives them in different places.

Legend:
[1] = biological target: Human cytomegalovirus DNA polymerase (Human cytomegalovirus (strain AD169) (HHV-5) (Human herpesvirus 5), UniProt P08546); test: CMV polymerase assay (AlphaLISA); type: biochemical; conditions: HCMV polymerase 0.2 nM, 30 min pre-incubation, 60 minute at 37° C.
Description: (§1) Human cytomegalovirus and varicella zoster virus DNA polymerases were expressed via baculovirus vector in SF21 cells and purified. Heterodimeric nucleic acid substrate used in the herpesvirus polymerase reactions were generated by annealing a 59-mer template to a 17-mer digoxigenin-labeled primer. Polymerase (HCMV final concentration of 0.2 nM; VZV final concentration of 0.4 nM) was combined with an inhibitor compound or DMSO in assay buffer (10 mM HEPES, pH 7.5, 25 mM KCl, 25 mM NaCl, 5 mM MgCl2, 5% glycerol, 0.67 mg/ml bovine serum albumin, and 1 mM tris(2-carboxyethyl)phosphine)), and this mixture was pre-incubated for 30 minutes at room temperature in 384-well microtiter plates. The polymerization reaction was initiated by the addition of template/primer substrate (final concentration: 1.6 nM), and dNTPs (final concentration: 24 nM dCTP, 24 nMdGTP, 16 nM dATP, 16 nM dTTP, and 0.8 nM biotin-dUTP). After a 60 minute incubation period at 37° C., the reactions were terminated using quench buffer (25 mM HEPES pH 7.5, 100 mM NaCl, 0.25% Tween-20, 12 mM EDTA, and 1 mg/ml bovine serum albumin). Incorporation of biotinylated UTP was detected with 2.5-5 μg/mL anti-DIG AlphaLISA acceptor beads and 5-10 μg/mL streptavidin AlphaLISA donor beads (PerkinElmer). Compound effects were normalized to the window defined by the controls (DMSO only and pre-quenched wells), and were fit using a 4-parameter algorithm to report an IC50.

[2] = biological target: varicella zoster virus DNA polymerase (Varicella-zoster virus (strain Dumas) (HHV-3) (Human herpesvirus 3), UniProt P09252); test: VZV polymerase assay (AlphaLISA); type: biochemical; conditions: VZV polymerase 0.4 nM, 30 min pre-incubation, 60 minute at 37° C.
Description: as §1

CMV = test: Viral qPCR assay, CMV; type: cell-based; conditions: infected cells, viral genome copies by qPCR normalized to PPIA, read-out: CMV Cell EC50
How it was run: (§2)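 Compound is titrated in ten 3-fold steps onto virus-infected MRC5, Vero or MeWo cells, which replicate for about 72 hrs. After detergent/proteinase K lysis, qPCR measures viral and PPIA copy numbers, and the normalized % effect gives an EC50.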

HSV2 = test: Viral qPCR assay, HSV2; type: cell-based; conditions: infected cells, viral genome copies by qPCR normalized to PPIA, read-out: HSV2 Cell EC50
How it was run: as §2

HSV1 = test: Viral qPCR assay, HSV1; type: cell-based; conditions: infected cells, viral genome copies by qPCR normalized to PPIA, read-out: HSV1 Cell EC50
How it was run: as §2

Row | SMILES | IC50 [1] [µM] | IC50 [2] [µM] | EC50 (CMV; ~72 hrs) [µM] | EC50 (HSV2; ~72 hrs) [µM] | EC50 (HSV1; ~72 hrs) [µM] | EC50 (CMV; Human betaherpesvirus 5, 72 h) [µM] | EC50 (HSV2; Human alphaherpesvirus 2, 72 h) [µM] | EC50 (HSV1; Human alphaherpesvirus 1, 72 h) [µM]
1 | N#Cc1ccc(Cn2c(=O)[nH]c3cc(-c4cnco4)c(O[C@H]4CCN5C(=O)OC[C@@H]5C4)cc3c2=O)cc1 [Example 10] | 0.00024 | 0.00028 | 0.07 | 0.068 | 0.109 |  |  | 
2 | Cc1nc2cc(-c3ccn(C(F)F)n3)c(O[C@H]3CCN4C(=O)OC[C@@H]4C3)cc2c(=O)n1Cc1ccc(C#N)cc1 [Example 11] | 0.00055 | 0.0025 | 0.054 | 0.035 | 0.051 |  |  | 
3 | Cc1nc2cc(-c3cn(C(F)F)nn3)c(O[C@H]3CCN4C(=O)OC[C@@H]4C3)cc2c(=O)n1Cc1ccc(Cl)cc1 [Example 12] | 0.00047 | 0.00047 | 0.112 | 0.061 | 0.073 |  |  | 
4 | Cc1nc2cc(-c3ccn(C(F)F)n3)c(O[C@H]3CCN4C(=O)OC[C@@H]4C3)cc2c(=O)n1Cc1ccc(Cl)cc1 [Example 13] | 0.001 | 0.0035 | 0.049 | 0.038 | 0.037 |  |  | 
5 | COc1ccc(-c2cc3nc(C)n(Cc4ccc(Cl)cc4)c(=O)c3cc2O[C@H]2CCN3C(=O)OC[C@@H]3C2)nn1 [Example 14] | 0.013 | 0.014 | 0.28 | 0.268 | 0.374 |  |  | 
6 | CC(=O)N1CCC(Oc2ccc3ccn(Cc4ccc(Cl)cc4)c(=O)c3c2)CC1 [Example 22] | 0.386 | 0.071 |  |  |  | 4.24 | 4.28 | 5.63
7 | O=C1OC[C@@H]2C[C@@H](Oc3ccc4ccn(Cc5ccc(Cl)cc5)c(=O)c4c3)CCN12 [Example 23] | 0.04 | 0.026 |  |  |  | 0.482 | 0.961 | 1.32
8 | O=C1OC[C@@H]2C[C@@H](Oc3ccc4ncn(Cc5ccc(Cl)cc5)c(=O)c4c3)CCN12 [Example 24] | 0.027 | 0.035 |  |  |  | 0.216 | 0.342 | 0.501
9 | O=C1OC[C@@H]2C[C@@H](Oc3cnc4ccn(Cc5ccc(Cl)cc5)c(=O)c4c3)CCN12 [Example 25] | 0.076 | 0.055 |  |  |  | 0.569 | 0.73 | 1.31
10 | Cc1cc2ccn(Cc3ccc(Cl)cc3)c(=O)c2cc1O[C@H]1CCN2C(=O)OC[C@@H]2C1 [Example 26] | 0.013 | 0.018 |  |  |  | 0.298 | 0.356 | 0.673
11 | O=C1OC[C@@H]2C[C@@H](Oc3cc4c(=O)n(Cc5ccc(Cl)cc5)ccc4cc3-c3cnn(C(F)F)c3)CCN12 [Example 27] | 0.0053 | 0.0059 |  |  |  | 0.114 | 0.059 | 0.124
12 | O=C1OC[C@@H]2C[C@@H](Oc3cnc4ncn(Cc5ccc(Cl)cc5)c(=O)c4c3)CCN12 [Example 28] | 0.048 | 0.06 |  |  |  | 0.5 | 0.884 | 1.25
13 | O=C1OC[C@@H]2C[C@@H](Oc3cc4c(=O)n(Cc5ccc(Cl)cc5)ccc4nc3-c3cnn(C(F)F)c3)CCN12 [Example 31] | 0.003 | 0.0021 |  |  |  | 0.101 | 0.046 | 0.139
14 | CC(C)(N)Cc1cc2ccn(Cc3ccc(Cl)cc3)c(=O)c2cc1O[C@H]1CCN2C(=O)OC[C@@H]2C1 [Example 32] | 0.015 | 0.033 |  |  |  | 0.392 | 0.402 | 0.772
15 | CC(C)(O)Cc1cc2ccn(Cc3ccc(Cl)cc3)c(=O)c2cc1O[C@H]1CCN2C(=O)OC[C@@H]2C1 [Example 34] | 0.0021 | 0.0014 |  |  |  | 0.074 | 0.081 | 0.11
16 | O=C1OC[C@@H]2C[C@@H](Oc3cc4c(=O)n(Cc5ccc(Cl)cc5)cnc4nc3-c3cnn(C(F)F)c3)CCN12 [Example 36] | 0.0019 | 0.0015 |  |  |  | 0.037 | 0.028 | 0.049
